In patent US9340577B2, “HLA binding motifs and peptides and their uses” (priority 1992, dated 2016):
Like-named read-outs stand apart in the source and are kept apart here. No end group written: not given here.

How the values were obtained:
Test in all cases: biochemical
Type in all cases: binding
A*3002 [1] = target: T1, A*3002 (Homo sapiens, UniProt P04439, D101N/D140H/D185E/E176R/F33S/G80R/H175R/K168Q/Q94H/R138E/R41S/V100E)
A*2902 [2] = target: T2, A*2902 (Homo sapiens, UniProt P04439, A270S/D101N/D185E/E176V/E277Q/E87Q/F33T/G231S/H175R/I121M/I218V/I322F/K168Q/L300P/L318F/M331R/P208A/P217A/Q86L/T323A/T345S/V100A/V358M)
HLA-A1 (A*0101) = HLA-A1 (A*0101) (Homo sapiens, UniProt P04439, A114D/A174V/A182V/D101N/D185E/E176A/E190D/L180R/Q94H/R68K/S129P/T187R/V100A/V91M/W191G)
A*2601 = A*2601 (Homo sapiens, UniProt P04439, A114D/A173T/A270S/D101N/D185E/E277Q/E87N/F33Y/G231S/I121R/I218V/K168Q/L180W/L300P/L318F/P208A/P217A/Q86R/Q94H/R138Q/S129P/T187R/T323A/T345S/V100A/V358M)
A*3002 [3] = target: T1, A*3002; remark: listed apart in the source
A*2902 [4] = target: T2, A*2902; remark: listed apart in the source
HLA-A11 (A*1101) = HLA-A11 (A*1101) (Homo sapiens, UniProt P04439, A114D/D185E/E176A/F33Y/L180Q/S129P/T187R)
A31 (A*3101) = A31 (A*3101) (Homo sapiens, UniProt P04439, A270S/D185E/E176V/E277Q/F33T/G231S/G80R/H175R/I121M/I218V/I322F/K168Q/L300P/L318F/M331R/P217A/Q94H/R138Q/T323A/T345S/T97I/V358M)
A*6801 = A*6801 (Homo sapiens, UniProt P04439, A269V/D185E/E176V/E277Q/E87N/F33Y/G231S/I121M/I166T/I218V/L180W/L300P/L318F/N151K/P208A/P217A/Q86R/R169H/T345S)
HLA-A3.2 (A*0301) = HLA-A3.2 (A*0301) (Homo sapiens, UniProt P04439)
A*3301 = A*3301 (Homo sapiens, UniProt P04439, A270S/D185E/E176V/E277Q/E87N/F33T/G231S/H175R/I121M/I218V/I322F/K168Q/K210R/L300P/L318F/M331R/P217A/Q86R/Q94H/R138Q/T323A/T345S/T97I/V358M/Y195H)

T1 sequence (P04439 whole entry, looked up, the tested form may be a part, stated change not applied): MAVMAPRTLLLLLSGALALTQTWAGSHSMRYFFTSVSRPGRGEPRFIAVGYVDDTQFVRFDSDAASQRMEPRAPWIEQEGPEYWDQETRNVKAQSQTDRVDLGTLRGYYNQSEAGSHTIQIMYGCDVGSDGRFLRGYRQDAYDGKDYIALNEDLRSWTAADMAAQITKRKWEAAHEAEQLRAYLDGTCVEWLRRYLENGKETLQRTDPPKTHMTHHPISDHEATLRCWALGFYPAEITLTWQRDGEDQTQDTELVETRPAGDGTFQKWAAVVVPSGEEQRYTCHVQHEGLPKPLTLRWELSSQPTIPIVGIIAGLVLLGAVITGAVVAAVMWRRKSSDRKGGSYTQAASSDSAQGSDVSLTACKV

Molecule | IC50 (HLA-A1 (A*0101)) | IC50 (A*2601) | IC50 (A*3002 [3]) | IC50 (A*2902 [4]) | further results
QAEQATSNYY [Peptide 78.0022] |  |  |  |  | IC50 (A*3002 [1]): 1440 nM; IC50 (A*2902 [2]): > 20000 nM
MRDNWRSELY [Peptide 9015.0155] | > 20000 nM | > 20000 nM | 73 nM | 6800 nM | 
VSRRAKGWFY [Peptide 9015.0178] | 273 nM | > 20000 nM | 40 nM | 11900 nM | 
EISNYTDTIY [Peptide 9015.0157] | 2340 nM | 32 nM | 7050 nM | > 20000 nM | 
RTDSVILNVLY [Peptide 9012.0162] | 14 nM |  |  |  | IC50 (A*3002 [1]): 8.5 nM; IC50 (A*2902 [2]): 954 nM
AFTDLTIVY [Peptide 78.0348] | 31 nM |  |  |  | IC50 (A*3002 [1]): 71 nM; IC50 (A*2902 [2]): 36 nM
GTDCNGWFY [Peptide 1593.01] | 40 nM | 318 nM | 330 nM | 73 nM | 
RFALNPGLL [Peptide 1605.01] | > 20000 nM | > 20000 nM | 98 nM | > 20000 nM | 
VWDIVYIEY [Peptide 9018.0040] | 91 nM | 336 nM | 472 nM | 540 nM | 
SIEWRLRRY [Peptide 9015.0035] | 5230 nM | 164 nM | 265 nM | 13100 nM | 
KYCWNLLQY [Peptide 1595.08] | > 20000 nM | > 20000 nM | 47 nM | 235 nM | 
RFHNIMGRW [Peptide 78.0381] | > 20000 nM |  |  |  | IC50 (A*3002 [1]): 27 nM; IC50 (A*2902 [2]): > 20000 nM
GYFPDWQNY [Peptide 1605.15] | > 20000 nM | > 20000 nM | 48 nM | 659 nM | 
SSDAALYWY [Peptide 1593.08] | 34 nM | > 20000 nM | 799 nM | 1970 nM | 
LYDQLIHLY [Peptide 9018.0028] | 177 nM | 69 nM | 21 nM | 249 nM | 
CQDKILEHY [Peptide 1580.23] | 55 nM | > 20000 nM | 2600 nM | > 20000 nM | 
LSDMVQWAY [Peptide 1593.03] | 21 nM | 8060 nM | 161 nM | 504 nM | 
GNEKTYFKY [Peptide 86.0160] | 2300 nM |  |  |  | IC50 (A*3002 [1]): 739 nM; IC50 (A*2902 [2]): 319 nM
KLNWASQIY [Peptide 1595.09] | 11300 nM | > 20000 nM | 2.9 nM | 108 nM | IC50 (HLA-A11 (A*1101)): 950 nM; IC50 (A31 (A*3101)): > 20000 nM; IC50 (A*6801): > 20000 nM; IC50 (HLA-A3.2 (A*0301)): 63 nM; IC50 (A*3301): > 20000 nM
GLDDQLIHLY [Peptide 9018.0024] | 11 nM | 1420 nM | 56 nM | 432 nM | 
RFHNIGGRW [Peptide 78.0369] | > 20000 nM |  |  |  | IC50 (A*3002 [1]): 13 nM; IC50 (A*2902 [2]): 12200 nM
CC[C@H](C)[C@H](NC(=O)[C@H](CO)NC(=O)[C@@H](NC(=O)[C@@H]1CCCN1C(=O)[C@H](CO)NC(=O)[C@H](Cc1ccc(O)cc1)NC(=O)[C@H](CCSC)NC(=O)[C@@H](N)CCCNC(=N)N)C(C)C)C(=O)N[C@@H](CC(C)C)C(=O)O [Peptide 1605.07] | > 20000 nM | > 20000 nM | 44 nM | > 20000 nM | 
RYSTQVDPGY [Peptide 9018.0039] | 12200 nM | > 20000 nM | 40 nM | > 20000 nM | 
NTDILTVTY [Peptide 1593.17] | 22 nM |  |  |  | IC50 (A*3002 [1]): 2000 nM
LKEYVLDLY [Peptide 78.0250] | > 20000 nM |  |  |  | IC50 (A*3002 [1]): 76 nM; IC50 (A*2902 [2]): 3310 nM
VTRRAKGWFY [Peptide 9018.0013] | 1.5 nM | 15 nM | 3.3 nM | 21 nM | 
WKSLVKHHMY [Peptide 9015.0177] | > 20000 nM | > 20000 nM | 148 nM | > 20000 nM | 
SIDWRLRRY [Peptide 9018.0020] | 986 nM | 624 nM | 27 nM | 3310 nM | 
LYDQLIHMYY [Peptide 9018.0031] | 191 nM | 4370 nM | 38 nM | 131 nM | 
